According to PubChem BioAssay (NCI):
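Assay format: 96-well plates, 48-hour exposure. TGI is the concentration that stops growth completely.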

Tests used:
Experiment in all cases: NCI tumour cell line growth inhibition, 48 h
[1] = tested on: 786-0 renal
[2] = tested on: A498 renal
[3] = tested on: A549 NSCLC
[4] = tested on: ACHN renal
[5] = tested on: CAKI-1 renal
[6] = tested on: DU-145 prostate
[7] = tested on: EKVX NSCLC
[8] = tested on: HCC-2998 colon
[9] = tested on: HCT-116 colon
[10] = tested on: HCT-15 colon
[11] = tested on: HOP-62 NSCLC
[12] = tested on: HS 578T breast
[13] = tested on: HT29 colon
[14] = tested on: IGROV1 ovarian
[15] = tested on: K-562 leukemia
[16] = tested on: KM12 colon
[17] = tested on: LOX IMVI melanoma
[18] = tested on: M14 melanoma
[19] = tested on: MALME-3M melanoma
[20] = tested on: MCF7 breast
[21] = tested on: MDA-MB-231 breast
[22] = tested on: MDA-MB-435
[23] = tested on: MDA-N
[24] = tested on: MOLT-4 leukemia
[25] = tested on: NCI-H226 lung
[26] = tested on: NCI-H23 lung
[27] = tested on: NCI/ADR-RES ovarian
[28] = tested on: OVCAR-3 ovarian
[29] = tested on: OVCAR-4 ovarian
[30] = tested on: OVCAR-5 ovarian
[31] = tested on: OVCAR-8 ovarian
[32] = tested on: PC-3 prostate
[33] = tested on: RPMI-8226 leukemia
[34] = tested on: SF-268 CNS
[35] = tested on: SF-295 CNS
[36] = tested on: SF-539 CNS
[37] = tested on: SK-MEL-2 melanoma
[38] = tested on: SK-MEL-28 melanoma
[39] = tested on: SK-MEL-5 melanoma
[40] = tested on: SK-OV-3 ovarian
[41] = tested on: SN12C renal
[42] = tested on: SNB-19 CNS
[43] = tested on: SNB-75 CNS
[44] = tested on: SR leukemia
[45] = tested on: SW-620 colon
[46] = tested on: T-47D breast
[47] = tested on: TK-10 renal
[48] = tested on: U251 CNS
[49] = tested on: UACC-257 melanoma
[50] = tested on: UACC-62 melanoma
[51] = tested on: UO-31 renal
[52] = tested on: BT-549 breast
[53] = tested on: CCRF-CEM leukemia
[54] = tested on: COLO 205 colon
[55] = tested on: HL-60(TB) leukemia
[56] = tested on: HOP-92 NSCLC
[57] = tested on: NCI-H460 lung
[58] = tested on: NCI-H522 lung

Measured: TGI

CCCCCCCCCCCCOCC1(COCCCCCCCCCCCC)COC(c2ccc(N)cc2)OC1
not listed: [52] | [53] | [54] | [55] | [56] | [57] | [58]
> 100 µM: all other assays above

C=C1CC[C@H]2C(C)=CC[C@H]3C(=C)C(=O)O[C@@H]3[C@@H]12
not listed: [11] | [12] | [16] | [28] | [33] | [34] | [43]
> 100 µM: all other assays above
